According to patent US20160251403A1, “PEPTIDE COMBINATIONS AND USES THEREOF IN TREATING DUST MITE ALLERGY” (ALK-ABELLO A/S, priority 2013, published 2016):
No end group written: not given here.

Experiments:
DPA10201-DPB11401 = experiment: Competitive MHC class II binding assay, DPA10201-DPB11401; conditions: read-out: HLA-DPA10201-DPB11401; positive binding at cutoff 1000 nM
Protocol: (§1) The assay employed is a competitive MHC class II binding assay, wherein each peptide is analyzed for its ability to displace a known control binder from each of the human MHC class II allotypes shown in Table 8. Due to the nature of the competitive assay, the data for each peptide is determined as a ratio of its own IC50 to that of the control peptide.
Assays to quantitatively measure peptide binding to purified class II MHC molecules are based on the inhibition of binding of a high affinity radiolabeled peptide to purified MHC molecules, and were performed essentially as detailed elsewhere (Sidney et al. 2008; Sidney et al. 2010b, a; Greenbaum et al. 2011; Sidney et al. 2001, Sidney et al 2013, McKinney et al 2013). Briefly, 0.1-1 nM of radiolabeled peptide was co-incubated at room temperature or 37° C. with purified MHC in the presence of a cocktail of protease inhibitors. Following a two- to four-day incubation, MHC bound radioactivity was determined by capturing MHC/peptide complexes on monoclonal Ab coated Lumitrac 600 plates (Greiner Bio-one, Frickenhausen, Germany), and measuring bound cpm using the TopCount (Packard Instrument Co., Meriden, Conn.) microscintillation counter. […] Under the conditions utilized, where [label]<[MHC] and IC50≧[MHC], the measured IC50 values are reasonable approximations of the true Kd values (Cheng and Prusoff 1973; Gulukota et al. 1997). […]

DPA10202-DPB10501 = molecular target: T1, DPA10202-DPB10501 (Homo sapiens, UniProt P04440+P20036, A42M/A65V/A84E/F191V/F64L/G113D/G114E/K142R/L158P/M116V/M62Q/P115A/Q81R/R125K/T114A/T199I/T259P/V234M); experiment: Competitive MHC class II binding assay, DPA10202-DPB10501; conditions: positive binding at cutoff 1000 nM; read-out: HLA-DPA10202-DPB10501
T1 sequence (P04440 30-258 A65V/A84E/F64L/G113D/G114E/M116V/P115A/R125K/T199I/V234M): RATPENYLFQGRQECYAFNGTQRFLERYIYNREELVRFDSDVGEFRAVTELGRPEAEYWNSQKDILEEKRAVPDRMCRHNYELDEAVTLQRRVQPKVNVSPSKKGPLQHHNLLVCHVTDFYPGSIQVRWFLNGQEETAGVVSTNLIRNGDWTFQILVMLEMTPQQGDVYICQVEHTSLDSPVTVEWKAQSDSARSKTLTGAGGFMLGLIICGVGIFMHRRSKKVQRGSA
T1 sequence (P20036 29-260 A42M/F191V/K142R/L158P/M62Q/Q81R/T114A/T259P): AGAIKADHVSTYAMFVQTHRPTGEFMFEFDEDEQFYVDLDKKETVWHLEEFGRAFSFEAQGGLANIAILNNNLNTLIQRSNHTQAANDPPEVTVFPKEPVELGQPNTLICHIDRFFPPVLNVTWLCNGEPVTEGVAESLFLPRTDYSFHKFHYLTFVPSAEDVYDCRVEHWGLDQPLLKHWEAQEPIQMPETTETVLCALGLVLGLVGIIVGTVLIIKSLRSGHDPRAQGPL
Protocol: as §1
(§2) Briefly, 0.1-1 nM of radiolabeled peptide was co-incubated at room temperature or 37° C. with purified MHC in the presence of a cocktail of protease inhibitors. Following a two- to four-day incubation, MHC bound radioactivity was determined by capturing MHC/peptide complexes on monoclonal Ab coated Lumitrac 600 plates (Greiner Bio-one, Frickenhausen, Germany), and measuring bound cpm using the TopCount (Packard Instrument Co., Meriden, Conn.) microscintillation counter. In the case of competitive assays, the concentration of peptide yielding 50% inhibition of the binding of the radiolabeled peptide was calculated. Under the conditions utilized, where [label]<[MHC] and IC50≧[MHC], the measured IC50 values are reasonable approximations of the true Kd values (Cheng and Prusoff 1973; Gulukota et al. 1997). Each peptide was tested at six different concentrations covering a 100,000-fold dose range in three or more independent experiments. […]

DRB1_1201 = DRB1_1201 (Homo sapiens, UniProt P01903+P01911, A100R/A169T/D57E/D86V/F55L/H45Y/K41T/L162R/M171V/P40S/Q125H/Q178H/Q39Y/Q99D/R42G/S66L/T262R/V114A/V67L/W38E/Y59H/Y61H/Y89S); experiment: Competitive MHC class II binding assay, DRB1_1201
Protocol: as §1, §2

IC50 (DPA10201-DPB11401) [µM]	IC50 (DPA10202-DPB10501) [µM]	IC50 (DRB1_1201) [µM]	Compound
< 1	< 1	–	LVGDNGVLASAIATHAKIRD [pep-110]
–	–	< 1	CC[C@H](C)[C@H](NC(=O)CNC(=O)[C@@H](NC(=O)[C@@H](NC(=O)[C@@H](NC(=O)[C@H](C)NC(=O)[C@@H](NC(=O)[C@H](C)NC(=O)[C@H](CO)NC(=O)[C@H](Cc1c[nH]cn1)NC(=O)[C@@H](NC(=O)[C@H](CCC(N)=O)NC(=O)[C@H](C)NC(=O)[C@H](CC(C)C)NC(=O)[C@H](C)NC(=O)[C@H](CCC(=O)O)NC(=O)[C@@H](N)CCCNC(=N)N)[C@@H](C)O)[C@@H](C)CC)C(C)C)[C@@H](C)CC)[C@@H](C)CC)C(=O)N[C@@H](CCCCN)C(=O)N[C@@H](CC(=O)O)C(=O)N[C@@H](CC(C)C)C(=O)N[C@@H](CC(=O)O)C(=O)N[C@@H](C)C(=O)O [pep-130]
